According to a melting point compilation (Tetko et al.; mined from patent text by program, amines drawn as free bases though some values may be those of a salt):

| melting point [°C] | SMILES |
| --- | --- |
| 116 | CCCCOc1ccc(C(=O)N(C)Cc2cccc(-c3ccc(CC4SC(=O)NC4=O)cc3)c2)cc1 (stereo not given) |
| 151 to 152 | CCOC(=O)c1c(C(C)(C)O)nc(CO)n1Cc1ccc(-c2ccccc2-c2nnnn2C(c2ccccc2)(c2ccccc2)c2ccccc2)cc1 |
| 156 to 159 | CC(=O)N(c1ccc(C)c(C)c1)[C@H](C)C(=O)O |
| 104 to 106 | O=C(CN1CCN(c2ccccc2)CC1)c1ccccc1 |
| 129 to 131 | CCCCCCCCCCCCCCCCCCOc1cc(OCCCCCc2cccc(O)c2O)cc(N(CC(=O)O)CC(=O)O)c1 |
| 180 to 183 | C#CCONC(=O)c1nc(-c2ccc(Cl)c(OC)c2F)cc(N)c1Cl |
| 152 | O=C(Nc1csc(-c2ccncc2)n1)Nc1cccc2c1C1CCCCN1C2=O (stereo not given) |
| 188 to 189 | O=C(Nc1ccccc1)Nc1ccnc(Br)c1 |
| 179 to 180 | NC(=S)Nc1ccc2ccccc2n1 |
| 194 to 196 | C=CCCc1nc(N)n2nc(-c3ccco3)nc2n1 |
| 158 to 159 | CC(=NOCCOc1ccc(C(=O)O)c(OC(=O)c2ccc(-c3ccccc3)cc2)c1)c1ccccc1 |
| 63 to 65 | COc1cc2c(cc1OC)CC(NC(=O)C1CCCN1C(C)=O)CC2 (stereo not given) |
| 166 to 167 | Cc1nc2cccc3n(CCCCNS(C)(=O)=O)c(=O)c1n23 |
| 154 to 155 | COc1cc2cc(COC(C)=O)c(COC(C)=O)c(C=O)c2cc1OC |
| 236 to 239 | CS(=O)(=O)c1ccc(-c2cccn3nc(N)nc23)cc1 |
| 179 to 182 | O=C(CNc1ccc2cn[nH]c2c1)N1CCC(Cc2ccccc2)CC1 |
| 96 to 98 | Cc1nn(C)c(C#N)c1[N+](=O)[O-] |
| 130 to 132 | CSc1nccc(Oc2ccc(NC(=O)c3cc(F)cc(N4CCCCC4)c3)c3ccccc23)n1 |
| 147 | Nc1c(Br)cc(S(=O)(=O)C(F)(F)F)cc1[N+](=O)[O-] |
| 198 to 214 | Cn1ncc(C(=O)N2CCOCC2)c1C(=O)Nc1ccn2nc(Br)nc2c1 |
| 115 to 117 | NCCSC[C@H]1O[C@@H](n2cnc3c(NCc4ccc([N+](=O)[O-])cc4)ncnc32)[C@H](O)[C@@H]1O |
| 110 to 111 | CCCCCCC(C(C)O)n1cnc(C#N)c1N (stereo not given) |
| 61 | COC(=O)c1cccc(-n2cccc2)n1 |
| 198 to 200 | CN1C(=O)CCC(C)(C)c2cc(Nc3ncc(Cl)c(Nc4ccccc4S(=O)(=O)N(C)C)n3)ccc21 |
| > 260 | CCCCCCCCCCCCOC(=O)NCCCCC(N)C(=O)O (stereo not given) |

| melting point [°C] | SMILES |
| --- | --- |
| 193 | Oc1ccc(CCNc2ncnc3scnc23)c(F)c1 |
| 144 to 145 | CS(=O)(=O)Nc1cc(Cl)c(Cl)cc1Cl |
| 251 to 255 | O=C(CCCCC(=O)Oc1cc(O)cc(O)c1)Oc1cc(O)cc(O)c1 |
| 107 to 108 | CCOC(=O)/C(=N\OC1CCCCCC1)c1csc(N)n1 |
| 134 to 138 | c1ccc2c(OC[C@H]3CCCN3c3ncnc4[nH]cnc34)ccc(CN3CCOCC3)c2c1 |
| 148 to 149 | COc1ccc(S(=O)(=O)Nc2ccccc2NC(=O)c2cccnc2C)cc1 |
| 59 to 61 | O=C1c2ccccc2C(=O)N1CCSCc1ccco1 |
| 202 to 203 | CCS(=O)(=O)c1cccc(-c2nc(=O)c3ccccc3s2)n1 |
| 81 to 82 | CCOC(=O)c1cnc2cc(Cl)ccc2c1Cl |
| 153 to 154 | Cc1ccc(NC(=O)c2ccc(CBr)c(C(F)(F)F)c2)cc1Br |
| 151 to 156 | CC=CN(C=CC)c1ccc2[nH]c3cnc(-c4nc(CC)no4)cc3c2c1 |
| 170 | COc1ccc(CCN(C)CCCCc2ccc(NC(=O)c3cccc4c(=O)c5cccc(OC)c5[nH]c34)cc2)cc1OC |
| 106 to 108 | CCc1cc(O)cc(=O)o1 |
| 174 to 176 | O=C1NCCCN1C1CCN(CC[C@H](c2ccc(Cl)c(Cl)c2)[C@@H](O)c2ccnn2-c2ccccc2)CC1 (racemic) |
| > 300 | CC1(C)CC(=O)C2=C(C1)NC1=C(C(=O)CC(C)(C)C1)C2c1c(F)cc(F)cc1F |
| 262 | Cc1nc2c3c(ccc2n1C)[C@@H](O)[C@H](O)[C@@H](c1ccccc1)O3 |
| 131 to 132 | CC(CCc1ccc(F)cc1)(Cn1ccnc1)Sc1cccc(Cl)c1Cl (stereo not given) |
| 250 to 252 | O=C(NCc1ccc(Cl)cc1)c1cnc2c(OCCO)cc(CCCO)cc2c1O |
| 312 | N#Cc1c(N2CCN(C(=O)c3ccco3)CC2)c2cc(F)cnc2[nH]c1=O |
| 159 to 160 | O=C(NN=Cc1ccncc1)OC(c1ccccc1)c1ccccc1 |
| 214 to 216 | CC(C)(C)NCC(O)COc1cccc2[nH]c(=S)[nH]c12 (stereo not given) |
| 100 to 101 | O=C(O)CCCCCOc1ccc(OCc2ccccc2)cc1 |
| 137 to 140 | COCCCn1nnnc1-c1cc(-c2cccc(C)c2)c(O)cc1O |
| 178 | O=C1Nc2ccc(Cl)cc2C1(NCCc1ccccn1)c1ccccc1Cl (stereo not given) |
| 78 | Cc1cc2cccc(Br)c2nc1C |

| melting point [°C] | SMILES |
| --- | --- |
| 113 to 115 | Cc1cccc(-c2[nH]c(C(C)C)nc2-c2ccc(F)c(-c3ccc(S(C)(=O)=O)cc3)c2)n1 |
| 154 to 155 | O=C(Nc1ccc(-n2nc(C(F)(F)F)cc2OC(F)F)cc1)c1cccc(F)c1F |
| 200 to 202 | N#Cc1c2c(c3c(c1N1CCCCC1)Cc1ccccc1-3)-c1ccccc1C2 |
| 189 | CN(C)n1cnnc1NN=Cc1c(Cl)cccc1Cl |
| 104 to 110 | CCOC(=O)c1ccc(N2C(=O)CCC2CO)c(NC(=NC(=O)OC(C)(C)C)NC(=O)OC(C)(C)C)c1 (stereo not given) |
| 263 to 265 | CC(=O)NC1CCS(=O)(=O)c2sc(S(N)(=O)=O)cc21 (stereo not given) |
| 154 to 155 | CCN1c2ncccc2C(OS(C)(=O)=O)Nc2c(C)cc(C)nc21 (stereo not given) |
| 287 to 289 | O=C1C2CC3CC1CC(c1cc(Br)ccc1O)(C3)C2 |
| 213 to 216 | O=C(O)CN(CC(=O)O)C(=O)OCC1c2ccccc2-c2ccccc21 |
| 164 to 169 | CC(C)C1C(=O)N(c2ccc(N=Nc3ccc(N(C)C)cc3)cc2)C(=S)N1C (stereo not given) |
| 169 to 171 | CC(=O)Nc1c(C(=O)c2ccc(Cl)c(Cl)c2)[nH]c2cc(Cl)ccc12 |
| 245 to 246 | CC(/C=C/C=C(\C)C1=Cc2cc(C(F)(F)F)ccc2OC1)=C\C(=O)O |
| 85 to 88 | CC1(C)CCOC1=C(Oc1ccc(Cl)cc1)n1ccnc1 |
| 113 to 114 | Cc1nsc(Cl)c1CS(=O)(=O)C1=NOC(C)(C)C1 |
| 194 to 196 | OC1(c2ccc(Cl)cc2)c2ccc(Cl)cc2-c2ncncc21 (stereo not given) |
| 173 | COc1cccc(C(=O)N(C)Cc2cccc(-c3ccc(CC4SC(=O)NC4=O)cc3)c2)c1 (stereo not given) |
| 200 to 202 | CCCc1nc2c(N)nc3ccccc3c2n1CCCC(=O)N1CCOCC1 |
| 159 to 161 | CCOC(=O)c1cc(=O)c2cc(OC)cc(Br)c2o1 |
| 193 to 196 | COc1cccc2c1Cc1c(OC)cccc1C2(CCO)CCO |
| 115 to 118 | O=C(c1ccc(F)cc1)N1CCCC(F)(c2nc(-c3ccc[nH]3)no2)C1 (stereo not given) |
| 94 to 96 | CCOCCOc1cccc2oc(-c3ccccc3)cc(=O)c12 |
| 156 to 158 | CCCN1CC(OCC2CC2)(C(F)(F)F)c2cc(Cl)ccc2NC1=O (stereo not given) |
| 77 to 78.4 | COc1ccc(CC(=O)c2cccs2)cc1 |
| 181 to 183 | FC(F)(F)c1cccc2c(-c3ccccc3)c(-c3ccccc3)cnc12 |
| 103 to 104 | CC(O)(c1ccccc1)c1cc(Oc2ccc(Cl)cc2)ccc1O (stereo not given) |

| melting point [°C] | SMILES |
| --- | --- |
| 70 to 71 | Cc1cc(O)ccc1OCc1ccccc1 |
| 185 to 187 | COC(=O)c1ccc2c(c1)c(Cc1ccc(C(=O)NS(=O)(=O)c3ccccc3C)cc1OC)cn2C |
| 116 to 118 | CCn1ccc2nc(N3CCN(Cc4ccccc4)CC3)ncc2c1=O |
| 60 to 62 | COC(=O)C1NC(c2ccc(Cl)cc2)C/C(=N\OS(C)(=O)=O)C1(Cl)Cl (stereo not given) |
| 237 to 239 | O=C(NCc1ccc(Cl)cc1)c1cnc2cc(Cl)ccc2c1O |
| 112 to 113 | NC(=O)CN1CCC1=O |
| 117 to 120 | Cc1c(NC(=O)C(CSC(=O)C(C)(C)C)Cc2ccccc2)cccc1C(=O)O (stereo not given) |
| 187 to 189 | CNC(=O)[C@@H](NC(=O)Nc1n[nH]c(=S)s1)C(C)OCc1ccccc1 (stereo not given in full) |
| 64 to 66 | CCOC(=O)Cc1nc(-c2ccc(OC)cc2)oc1-c1ccco1 |
| 226 to 227 | COc1cc2onc(N)c2cc1Br |
| 145 to 147 | Cc1c(OCc2ccccc2)c(=O)ccn1CCCCCC(=O)O |
| 188 to 190 | COc1nc(NCS(=O)(=O)c2ccc(C)cc2)nc(N(C)C)n1 |
| > 260 | Cn1ccc2c(-n3cc(C(=O)NC(=N)N)c4cccnc43)ncnc21 |
| 133 to 134 | CC(C)(NS(=O)(=O)c1ccc(Oc2ccc(F)cc2)cc1)C(=O)NO |
| 162 to 165 | COC(=O)CCCc1cc2cc(Cl)ccc2n1S(=O)(=O)c1ccc2c(c1)CCN2C(C)=O |
| 120 to 125 | C=C(C)C=CCC(C)C1CCC2(C)C1(C)CCC1C3(C)CCC(OC(C)=O)CC3CCC12C (stereo not given) |
| 182 to 184 | CC(=O)NC[C@H]1CN(c2ccc(C3=CCOCC3)cc2)C(=O)O1 |
| 118 to 122 | CCCN1N=C2C(=Cc3ccc(Cl)cc3)CSCC2C1c1ccc(Cl)cc1 (stereo not given) |
| 216 to 217 | COC(=O)c1cc(C(=O)NCCF)c2cc(Cc3ccc(F)cc3)cnc2c1O |
| 264 to 268 | COc1ccc(N2CCOCC2)c2sc(-c3nc4ccc(N5CCCC5)nc4[nH]3)nc12 |
| 270 to 272 | COC(=O)c1cc2ccc(C(=O)O)cc2[nH]1 |
| 145 to 147 | COc1cccc(C(=O)O)c1C |
| 214 to 217 | Cc1nc2c(N)nc3ccccc3c2n1CCOCCS(C)(=O)=O |

| SMILES | melting point [°C] |
| --- | --- |
| Cc1noc(-c2ncn3c2CN(C)C(=O)c2ccccc2-3)n1 | 257 to 260 |
| CCOC(=O)c1ncn2c1CN(Cc1ccc(OC)cc1OC)C(=O)c1cc(OC)ccc1-2 | 204 |
